The subject of this assay is SW480. Nature of the assay: drug sensitivity score (DSS, integrated dose-response area); higher = more sensitive (stronger viability reduction); extreme values may be limits of the assay. An outline of the steps: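 Viability of induced SW480 cells carrying control or SND1-targeting shRNA was read by CellTiter-Glo 72 h after plating at 1000 cells per well onto 384-well plates holding 525 small-molecule inhibitors at five concentrations. Induction used 0.1 µg/mL doxycycline for 7 days. Each drug sensitivity score integrates the area under a fitted non-linear dose–response model.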

[1] abbreviates: shRNA: SND1 shRNA1 (SND1 silenced).
The mark [2] stands for this setting: shRNA: SND1 shRNA2 (SND1 silenced).
The mark [3] stands for this setting: shRNA: control shRNA (non-targeting).

On to `O=C(NOCC1CC1)c1ccc(F)c(F)c1Nc1ccc(I)cc1Cl`, for which the drug sensitivity score reads like this: under setting [1], 16.4 DSS; under setting [2], 7.4 DSS; under setting [3], 10.5 DSS.
For `C[C@@]1(C(=O)Nc2ccc(F)nc2)CCCN1c1nc(Nc2cc(C3CC3)n[nH]2)c2cccn2n1`, the drug sensitivity score amounted to 8.1 DSS under setting [1], 4.6 DSS under setting [2] and 2.4 DSS under setting [3].
For the compound `Cn1cc(C2=C(c3cn(C4CCN(Cc5ccccn5)CC4)c4ccccc34)C(=O)NC2=O)c2ccccc21` [Enzastaurin], the drug sensitivity score stood at 4.1 DSS under setting [1], 0 DSS under setting [2] and 1.4 DSS under setting [3].
For `COc1cc(C(=O)O)ccc1NC(=O)[C@@H]1N[C@@H](CC(C)(C)C)[C@](C#N)(c2ccc(Cl)cc2F)[C@H]1c1cccc(Cl)c1F` [Idasanutlin] the same measures were 0 DSS, 0.3 DSS and 0.9 DSS.
For the compound `N[C@@H]1CCCN(c2c(/C=C3\SC(=O)NC3=O)cccc2-c2ccccc2)C1` [AZD1208], the drug sensitivity score reads like this: under setting [1], 0 DSS; under setting [3], 0 DSS.
On to `O=C(c1ccc(/C=C/c2n[nH]c3ccccc23)cc1)N1CCNCC1` [KW-2449], for which the drug sensitivity score reads like this: under setting [1], 0.7 DSS; under setting [2], 0 DSS; under setting [3], 0.2 DSS.
For `CNC(=O)c1cc(Oc2ccc(NC(=O)Nc3cc(C(C)(C)C)nn3-c3ccc4ncccc4c3)c(F)c2)ccn1` [Rebastinib] the same measures were 0 DSS, 0 DSS and 0 DSS.
The like results for `O=C1NC(=O)[C@@H](c2cn3c4c(cccc24)CCC3)[C@@H]1c1c[nH]c2ccccc12` [Tivantinib] were, in that order, 6.4 DSS, 4 DSS and 5.4 DSS.
The like results for `O=C(Cc1ccc(-c2ccc(OCCN3CCOCC3)cc2)cn1)NCc1ccccc1` [KX2-391] were, in that order, 15 DSS, 17.4 DSS and 18.9 DSS.
With `CC(C)(O)CC(=O)NCCn1ccc2ncnc(Nc3ccc(Oc4cccc(C(F)(F)F)c4)c(Cl)c3)c21` [TAK-285], the drug sensitivity score came to 0 DSS under setting [1], 0 DSS under setting [2] and 0 DSS under setting [3].
Take `CC(C)Cn1cnc2c(N)nc3ccccc3c21` [Imiquimod]: the drug sensitivity score reads like this: under setting [1], 0.9 DSS; under setting [2], 0.1 DSS; under setting [3], 3.5 DSS.
For `Nc1ncn([C@@H]2O[C@H](CO)[C@@H](O)[C@H]2O)c(=O)n1` [Azacitidine] the same measures were 3.7 DSS, 4.4 DSS and 2.9 DSS.
`O=C(NOC[C@H](O)CO)c1ccc(F)c(F)c1Nc1ccc(I)cc1F`: the drug sensitivity score under setting [1] came out at 17.9 DSS, the drug sensitivity score under setting [2] worked out at 8.2 DSS and the drug sensitivity score under setting [3] came to 9.5 DSS.
The like results for `O=c1[nH]c(C2CCCN2)nc2c1oc1ccc(Cl)cc12` (stereo not given) were, in that order, 1.5 DSS, 0 DSS and 8.1 DSS.
The like results for `COc1cc(Nc2ncc(F)c(Nc3ccc4c(n3)NC(=O)C(C)(C)O4)n2)cc(OC)c1OC` [Tamatinib] were, in that order, 0.4 DSS, 0.4 DSS and 0 DSS.
For the compound `Cn1cc(C[C@@H](N)C(=O)O)c2ccccc21` [1-methyl-D-tryptophan], the drug sensitivity score was 0 DSS under setting [1] and 0 DSS under setting [3].
Take `CCc1c2c(nc3ccc(OC(=O)N4CCC(N5CCCCC5)CC4)cc13)-c1cc3c(c(=O)n1C2)COC(=O)[C@]3(O)CC` [Irinotecan]: the drug sensitivity score runs as follows: under setting [1], 3.2 DSS; under setting [2], 1.6 DSS; under setting [3], 5.5 DSS.
As for `CC(C)(C)c1nc(-c2cccc(NS(=O)(=O)c3c(F)cccc3F)c2F)c(-c2ccnc(N)n2)s1` [Dabrafenib], the drug sensitivity score is 0 DSS under setting [1] and 0 DSS under setting [3].
Consider `NS(=O)(=O)OC[C@@H]1C[C@@H](n2ccc3c(N[C@H]4CCc5ccccc54)ncnc32)C[C@@H]1O` [Pevonedistat], for which the drug sensitivity score by setting is: under setting [1], 4.5 DSS; under setting [3], 8.2 DSS.
The compound `Cn1ncnc1[C@H]1c2n[nH]c(=O)c3cc(F)cc(c23)N[C@@H]1c1ccc(F)cc1` [Talazoparib] registered a drug sensitivity score under setting [1] of 5.8 DSS, a drug sensitivity score under setting [2] of 0 DSS and a drug sensitivity score under setting [3] of 2.5 DSS.
With `N[C@@H](Cc1ccc(N(CCCl)CCCl)cc1)C(=O)O` [Melphalan], the drug sensitivity score reads like this: under setting [1], 0 DSS; under setting [3], 0 DSS.
As for `NS(=O)(=O)NCCNc1nonc1/C(=N/O)Nc1ccc(F)c(Br)c1` [Epacadostat], the drug sensitivity score is, setting by setting: under setting [1], 0 DSS; under setting [2], 1.5 DSS; under setting [3], 0.1 DSS.
Take `CCCCCCCCc1ccc(CCC(N)(CO)CO)cc1` [Fingolimod]: the drug sensitivity score by setting is: under setting [1], 8.5 DSS; under setting [2], 8.9 DSS; under setting [3], 6.6 DSS.
With `O=C(O)CCCc1ccc(N(CCCl)CCCl)cc1` [Chlorambucil], the drug sensitivity score came to 0 DSS under setting [1], 0 DSS under setting [2] and 0 DSS under setting [3].
Turning to `CCCCNc1ncc(C(=O)NCc2ccc(-n3ccnc3)cc2)c(NC2CCC(O)CC2)n1` (stereo not given) [UNC2881], the drug sensitivity score under setting [1] worked out at 0 DSS, the drug sensitivity score under setting [2] amounted to 0 DSS and the drug sensitivity score under setting [3] was 0 DSS.
As to `Cc1cnc(-c2ccccc2C(C)C)nc1NCc1ccc(-n2ccnn2)cc1` [ML323], the drug sensitivity score by setting is: under setting [1], 0 DSS; under setting [2], 1.4 DSS; under setting [3], 4.4 DSS.
The like results for `Nc1ncn([C@H]2C[C@H](O)[C@@H](CO)O2)c(=O)n1` [Decitabine] were, in that order, 11 DSS, 8.2 DSS and 5.5 DSS.
The like results for `Cc1cc(C)c(/C=C2\C(=O)Nc3ccccc32)[nH]1` [Semaxanib] were, in that order, 0 DSS, 0 DSS and 0.6 DSS.
For `CCN1CCN(Cc2ccc(Nc3ncc(F)c(-c4cc(F)c5nc(C)n(C(C)C)c5c4)n3)nc2)CC1` [Abemaciclib] the same measures were 4 DSS, 0.2 DSS and 4.1 DSS.
As for `CN1CCN(c2cc(C(=O)Nc3ccc4c(c3)-c3c(c(C(N)=O)nn3-c3ccc(F)cc3)CC4)c(Cl)cn2)CC1` [PHA 408], the drug sensitivity score by setting is: under setting [1], 5.3 DSS; under setting [3], 5.2 DSS.
`CC[C@H](CO)Nc1nc(NCc2ccccc2)c2ncn(C(C)C)c2n1` [Seliciclib]: the drug sensitivity score was 2.1 DSS under setting [1], 0.7 DSS under setting [2] and 1.2 DSS under setting [3].
The like results for `Cc1c(NC(=O)OC[C@@H]2COCCN2)cn2ncnc(Nc3ccc4c(cnn4Cc4cccc(F)c4)c3)c12` were, in that order, 2 DSS, 3.1 DSS and 4 DSS.
For `COc1cc(O)c2c(c1)/C=C/C[C@H](O)[C@H](O)C(=O)/C=C\C[C@H](C)OC2=O` [(5Z)-7-Oxozeaenol] the same measures were 3.7 DSS, 2.6 DSS and 3.6 DSS.
For the compound `Cn1cc(-c2ccc3nnc(C(F)(F)c4ccc5ncccc5c4)n3n2)cn1`, the drug sensitivity score is, setting by setting: under setting [1], 0 DSS; under setting [2], 0 DSS; under setting [3], 1.3 DSS.
Turning to `Oc1nc(-c2ccc(C(F)(F)F)cc2)nc2c1CSCC2` [XAV-939], the drug sensitivity score reads like this: under setting [1], 3.9 DSS; under setting [2], 0 DSS; under setting [3], 3.2 DSS.
For `Cn1cc(CNCC2CCN(c3ncc(C(=O)NO)cn3)CC2)c2ccccc21` [Quisinostat] the same measures were 14.9 DSS, 14.6 DSS and 13.6 DSS.
The like results for `Cc1cc(-c2nc(-c3ccc(OC(F)(F)F)cc3)no2)nn1Cc1ccnc(N2CCN(C3CC3)CC2)c1` [BAY 87-2243] were, in that order, 0.3 DSS, 21.9 DSS and 1.1 DSS.
For `Nc1ccn([C@@H]2O[C@H](CO)[C@@H](O)[C@@H]2O)c(=O)n1` [Cytarabine] the same measures were 5.4 DSS, 0 DSS and 3.6 DSS.
Turning to `CC1=C(/C=C/C(C)=C/C=C/C(C)=C/C(=O)O)C(C)(C)CCC1` [Tretinoin], the drug sensitivity score by setting is: under setting [1], 0 DSS; under setting [2], 0 DSS; under setting [3], 0 DSS.
In turn, `CC[C@@H]1C(=O)OC[C@@H]1Cc1cncn1C` [Pilocarpine] gave a drug sensitivity score under setting [1] of 0.6 DSS, a drug sensitivity score under setting [2] of 0 DSS and a drug sensitivity score under setting [3] of 0.2 DSS.
For the compound `O=C(NC[C@H](O)CN1CCc2ccccc2C1)c1cc(NC2COC2)ncn1`, the drug sensitivity score is, setting by setting: under setting [1], 0 DSS; under setting [2], 0 DSS; under setting [3], 0.2 DSS.
Take `O=C(c1ccc(OCCN2CCCCC2)cc1)c1c(-c2ccc(O)cc2)sc2cc(O)ccc12` [Raloxifene]: the drug sensitivity score runs as follows: under setting [1], 6.6 DSS; under setting [2], 4.1 DSS; under setting [3], 7.2 DSS.
The like results for `O=C(/C=C\n1cnc(-c2cc(C(F)(F)F)cc(C(F)(F)F)c2)n1)NNc1ccccn1` [Verdinexor] were, in that order, 8 DSS, 4.5 DSS and 8.6 DSS.
Regarding `N#CC(c1ccnc(OCc2ccc(CN3CCOCC3)cc2)n1)c1nc2ccccc2s1` (stereo not given) [Bentamapimod], the drug sensitivity score reads like this: under setting [1], 2.3 DSS; under setting [3], 4 DSS.

For the origin of these results see the supplement of paper PMC9265050, “Inhibition of RNA Binding in SND1 Increases the Levels of miR-1-3p and Sensitizes Cancer Cells to Navitoclax” (Cancers, 2022).
